Measured values: patent US8080664B2, “Use of compounds as inhibitors for Helicobacter flavodoxin” (Universidad De Zaragoza, priority 2007, dated 2011)

Legend:
[1] = molecular target: T1, H. pylori flavodoxin (Helicobacter pylori, UniProt O25776); assay: Inhibition assay of sequential electron transfer pyruvate/PFOR/flavodoxin/FqrB/NADP+ (NADPH formation at 340 nm); type: biochemical; details: 50 μM compound; anaerobic; 10 μM Fld; absorbance at 340 nm
T1 construct: made in house; host or cells: E. coli BL21 (flavodoxin, pET28a); E. coli JVQ2 (PFOR); E. coli BL21(DE3) (FqrB)
T1 sequence (O25776 1-164): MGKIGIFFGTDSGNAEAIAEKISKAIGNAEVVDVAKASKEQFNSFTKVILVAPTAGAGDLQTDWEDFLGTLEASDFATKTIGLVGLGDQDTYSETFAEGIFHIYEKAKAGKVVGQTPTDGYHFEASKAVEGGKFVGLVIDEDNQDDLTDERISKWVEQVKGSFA
Text: Flavodoxin is an essential protein for Helicobacter pylori survival as it participates in a fundamental reaction for obtaining energy from the oxidative decarboxylation of pyruvate. In this reaction, flavodoxin transfers electrons between the PFOR enzyme and the FqrB enzyme, which releases them to NADP^+.
The sequential reaction of electron transfer between pyruvate, PFOR, flavodoxin, FqrB and NADP^+ (activity assay) was followed spectroscopically by the appearance of the signal at 340 nm with the formation of NADPH. The reaction mixture contained 100 mM potassium phosphate pH 7, 10 mM pyruvate, 0.18 mM CoA, 1 mM MgCl, 0.3 mM NADP^+, 0.09 mg/ml PFOR, 10 μM Fld and 0.15 μM FqrB. The mixture, except CoA, was placed in a cuvette specially designed for anaerobic conditions. Oxygen was removed by means of 5 minute cycles with alternate flows of vacuum and argon. The reaction was started by the addition of 0.18 mM coenzyme A (CoA) that was held in a compartment inside the same cuvette. The reaction finished 15 minutes after adding the CoA reagent.
The inhibition assays were carried out in the same conditions as the activity assays previously described, adding an additional 50 μM of the disclosed compound of the general formula shown in (II) to the reaction cuvette.

[2] = molecular target: T2, flavodoxin of H. pylori (Helicobacter pylori, UniProt O25776); assay: Isothermal titration calorimetry (ITC) binding to flavodoxin; details: 50 mM EPPS buffer, pH 9, 7% DMSO; protein around 20 μM; read-out: affinity for flavodoxin (ITC)
T2 construct: made in house; host or cells: E. coli BL21 (pET28a)
Description: The specific binding of the inhibitors of the disclosed compounds to flavodoxin of H. pylori was confirmed by isothermal titration calorimetry (ITC). This technique not only measures the affinity of each compound for the target protein, but also determines the contribution of the enthalpic and entropic components of binding.
The binding experiments were carried out in 50 mM EPPS buffer, pH 9 with 7% DMSO, with the inhibitor in the injection syringe at a concentration of 300-500 μM, and the protein around 20 μM in the measurement cell.

Question: What does the source list for `O=[N+]([O-])C1=Cc2cc(Cl)cc(Cl)c2OC1c1ccc(F)cc1` (centres unmarked) [formula (II)]?
Answer: inhibition of NADPH formation (pyruvate oxidative decarboxylation reaction) [1]: almost total; Kd [2]: 1600 nM
